Assay results as given in patent US8357697B2, “Substituted 3-isobutyl-9,10-dimethoxy-1,3,4,6,7,11b-hexahydro-2H-pyrido[2,1-A]isoquinolin-2-ol compounds and methods relating thereto” (Neurocrine Biosciences, Inc., priority 2006, dated 2013).
Each block holds one compound with its values, some of them ahead of it.

Experiments:
[1] = tested on: human hepatocytes; test: Stability of compounds in human hepatocytes; format: in vitro ADME; conditions: 1 μM, 0-60 min, FIGS. 1a-1c
Procedure: Cryopreserved human hepatocytes from 12 individual donors were thawed according to the supplier's instruction and pooled. Cell viability was determined to be more than 85%. TBZ (1 μM) was incubated with individual human hepatocytes (1×10^6 cells/mL) at 37° C. with 95% O2 and 5% CO2 for 0, 5, 15, 30 and 60 min. TBZ in DMSO was added to achieve 1.0 μM (DMSO was less than 0.5% v/v). All concentrations and cell contents were relative to the final incubation volume of 100 μL. The incubation was terminated by mixing 100 μL of ice-cold acetonitrile in 1% formic acid containing dextromethorphan (1.0 μM) as internal standard for LC/MS analysis. Precipitated proteins were removed by centrifugation (1500-2500×g for 30 min at 15° C.).
Briefly, samples were separated with a gradient HPLC method by Acquity HPLC systems consisting of a pump, a column heater (40° C.), and a vacuum degasser/mobile phase tray. Mobile phase A was water in 0.1% formic acid and mobile phase B was acetonitrile in 0.1% formic acid. The gradient elution was as follows: mobile phase B: 0-10% at 0-0.75 min, 40-90% at 1.25-1.5 min, 90-0% at 1.75-2.0 min, and run time was 3 min. The reverse phase column was a BEH C18 column (50×2.1 mm, 1.7 μm). Flow rate was 0.8 mL/min and injection volume was 7.5 μL. The samples were monitored with API-3000 mass spectrometer and ESI ion source in positive mode, TBZ m/z 318.4>220.4, HTBZ m/z 320.3>302.3, and dextromethorphan m/z 272.2>147.2.

[2] = humans, background statement; cited from earlier work
[3] = target: T1, Dopamine D2S receptor (Homo sapiens, UniProt P14416); test: Dopamine D2S receptor competition binding ([3H]spiperone); conditions: for inhibition at 10 µM: read-out: D2S (h) % inhibition at 10 uM
T1 construct: expressed in transfected cells; host or cells: CHO cells
Procedure: (§1) The four HTBZ stereoisomers and compounds of the present invention were tested for receptor specificity by screening against a panel of 80 receptors, ion channels and transporters (High-throughput profile, Cerep, S. A.).
(a) Dopamine D2S receptor:
Reference: Grandy et al., (1989) Proc. Natl. Acad. Sci. USA 86: 9762-6
(§2) Source: Human recombinant (CHO cells)
Ligand: [3H]spiperone, 1.0 nM
Incubation time/temperature: 90 min/25° C.
Incubation buffer: 50 mM HEPES, 100 mM NaCl, 1 mM EDTA, 3 mM MgCl2, pH 7.4
Non-specific ligand: clozapine (10 μM)
Specific binding: 600 cpm
(§3) Quantitation method: Scintillation counting

[4] = target: T2, Dopamine D4.4 receptor (Homo sapiens, UniProt P21917); test: Dopamine D4.4 receptor competition binding ([3H]spiperone); conditions: for inhibition at 1 µM: read-out: D4.4 (h) % inhibition at 1 uM; for inhibition at 10 µM: read-out: D4.4 (h) % inhibition at 10 uM
T2 construct: expressed in transfected cells; host or cells: CHO cells
T2 sequence (P21917 1-419): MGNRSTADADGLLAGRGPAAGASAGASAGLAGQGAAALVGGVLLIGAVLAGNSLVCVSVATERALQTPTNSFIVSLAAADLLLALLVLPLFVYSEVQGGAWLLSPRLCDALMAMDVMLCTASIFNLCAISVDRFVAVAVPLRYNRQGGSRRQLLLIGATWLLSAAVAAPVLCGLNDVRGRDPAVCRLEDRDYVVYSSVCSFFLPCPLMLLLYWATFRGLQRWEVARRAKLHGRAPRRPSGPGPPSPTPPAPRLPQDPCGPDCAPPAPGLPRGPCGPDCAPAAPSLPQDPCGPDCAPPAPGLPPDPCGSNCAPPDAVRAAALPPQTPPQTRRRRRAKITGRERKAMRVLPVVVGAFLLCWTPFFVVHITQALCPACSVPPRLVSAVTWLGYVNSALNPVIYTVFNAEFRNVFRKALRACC
Procedure: as §1
(b) Dopamine D4.4 receptor:
as §2
Ligand: [3H]spiperone, 0.3 nM
Incubation time/temperature: 60 min./22° C.
Non-specific ligand: (+)butaclamol (10 μM)
as §3

[5] = target: T3, VMAT2 (Rattus norvegicus, UniProt Q01827); test: VMAT2 competition binding assay ([3H]-dihydrotetrabenazine); conditions: mean±SD, n in brackets; at least two independent experiments; read-out: pKi (n), VMAT2 affinity from competition binding studies (converted)
T3 construct: on rat forebrain homegenate (100 μg membrane protein per well); from tissue; host or cells: rat striatum (Procedure A, vesicles) or Sprague-Dawley rat forebrain homogenate (Procedure B)
Procedure: Preparation of Rat Striatal Vesicles
Rat striata from three rats are pooled and homogenized in 0.32 M sucrose. The homogenate is then centrifuged at 2,000×g for 10 min at 4° C. and the resulting supernatant is centrifuged at 10,000×g for 30 min at 4° C. The resulting pellet containing the enriched synaptosomal fraction (2 mL) is subjected to osmotic shock by addition of 7 mL of distilled H2O, and subsequently the suspension is homogenized. The osmolarity is restored by the addition of 0.9 mL of 0.25 M HEPES and 0.9 mL of 1.0 M neutral L-(+)-tartaric acid dipotassium salt buffer (pH 7.5), followed by a 20 min centrifugation (20,000×g at 4° C.). […]
Aliquots of the vesicle suspension (0.16 mL, 15 μg of protein/mL) are incubated with competitor compounds (ranging from 1E-6M to 1E-12M) and 2 nM [^3H]-dihydrotetrabenazine (HTBZ; specific activity: 20 Ci/mmol, American Radiolabeled Chemicals, Inc) for 1 h at room temperature in a total volume of 0.5 mL. […] Nonspecific binding is determined using 20 μM tetrabenazine (TBZ). […] Bound radioactivity is determined by scintillation spectrometry.
Following incubation at 25° C. for two hours, bound radioligand was collected by rapid filtration onto GF/B glass fiber filters using a Unifilter-96 Harvester (PerkinElmer). […] Bound radioligand was quantified by scintillation counting using a Topcount NXT (PerkinElmer). […]

[6] = tested on: panel of 80 receptors, ion channels and transporters; test: Receptor selectivity binding assays (Cerep high-throughput profile); conditions: versus the dopamine receptors tested
Procedure: as §1

[7] = Stability in rat liver microsomes; format: in vitro ADME; conditions: 1 μM, 0-60 min, FIGS. 2a-2f
[8] = Stability in dog liver microsomes; format: in vitro ADME; conditions: 1 μM, 0-60 min, FIGS. 2a-2f
[9] = Stability in human liver microsomes; format: in vitro ADME; conditions: 1 μM, 0-60 min, FIGS. 2a-2f
Procedure: Briefly, pooled human liver microsomes (0.1 or 0.5 mg/mL; n>10; mixed gender) were incubated at 37° C. with the test compound in the presence of an NADPH-generating system containing 50 mM, pH 7.4 potassium phosphate buffer, 3 mM magnesium chloride, 1 mM EDTA, 1 mM NADP, 5 mM G-6-P, and 1 Unit/mL G-6-PD.
Incubations were conducted in six modified 2.0-mL, 96-well, deep-well plates in 1 μM of each compound (0.01% DMSO) with a total volume of 250 μl. Each plate, representing a single time point, contained 96 Titertube® Micro Tubes allowing for duplicates of 48 compounds at each time point (0, 5, 10, 20, 40, and 60 minutes). Reaction was stopped by the addition of an appropriate stop reagent (0.3 mL of acetonitrile containing a proprietary internal standard). Precipitated proteins were removed by centrifugation for 15 min at 3000 rpm, and the supernatant fluid (˜0.1 mL) was analyzed by LC/MS for the % of parent compound remaining.
Samples were separated with a gradient HPLC method by Agilent LC systems consisting of a pump, a column heater (40° C.), and a vacuum degasser/mobile phase tray. Mobile phase A was water in 0.1% formic acid and mobile phase B was acetonitrile in 0.1% formic acid. […] The samples were monitored with API-3000 mass spectrometer and ESI ion source in positive mode, TBZ m/z 318.4>220.4, HTBZ m/z 320.3>302.3, and dextromethorphan m/z 272.2>147.2.

[10] = Pharmacokinetic evaluation in rat, single oral dose; format: in vivo
Procedure: In brief, single oral dose (10 mg/kg) of 2-1 and 3-1 in 10% PEG in 0.25% methylcellulose in milli Q water was administered to rats (3 rats/dose) for a pharmacokinetic evaluation. Serial sampling was used to collect blood samples, which were taken from each treated animal at nine time points ranging from pre-dose to 24 hours post dose (0, 0.25, 0.5, 1, 2, 4, 6, 8 and 24 hours) for the oral administration. Plasma samples were stored at −80° C. or below until analysis.
Plasma samples were thawed on ice, and 50 μL of plasma was transferred to a 96-well plate. Plasma proteins were precipitated by addition of pre-chilled 150 μL acetonitrile (ACN) containing 75 ng/mL internal standard. Additional 50 μL of ACN/water (60:40) was added into each sample. Calibration curve samples were prepared by a serial dilution in ACN/water (60:40). Fifty microliter of each standard sample was transferred to a 96-well plate followed by adding 150 μL acetonitrile (ACN) containing 75 ng/mL internal standard and 50 μL blank rat plasma. The plates were capped, mixed and centrifuged at 3000 rpm for 20 min. The supernatant was collected and injected into a LC-MS/MS system for quantification. […] of QC samples (4, 40, 400, 800 ng/ml) for 3-1,2-1 and 1d.1 were used as quality control for the studies needed and prepared in a same way as the standards. Quantification was performed by fitting peak area ratios to a weighted (1/x^2) linear calibration curve.
(§4) Descriptive pharmacokinetics were derived and evaluated based on the plasma concentrations of 3-1, 2-1 and 1d.1 from each individual […]. Pharmacokinetic parameters were determined using Non-Compartmental Analysis of the plasma concentration-time profiles of 3-1, 2-1 and 1d.1 in WinNonlin pharmacokinetic modeling software Professional Version 5.0.1 program (Pharsight Corporation, Mountain View, Calif.).

[11] = Pharmacokinetic evaluation in dog, single oral dose; format: in vivo; conditions: oral 10 mg/kg (2-1), FIGS. 3c-3d
Procedure: In brief, a single oral dose (6.1 mg/kg for 3-1 and 10 mg/kg for 2-1) in 10% PEG in 0.25% methylcellulose in milli Q water was administered to dogs (3 dogs/dose) for a pharmacokinetic evaluation. Serial sampling was used to collect blood samples, which were taken from each treated animal at nine time points ranging from pre-dose to 24 hours post dose ([…]) for the oral administration. Plasma samples were stored at −80° C. or below until analysis.
Plasma samples were thawed on ice, and 50 μL of plasma was transferred to a 96-well plate. Plasma proteins were precipitated by addition of pre-chilled 150 μL acetonitrile (ACN) containing 75 ng/mL internal standard. Additional 50 μL of ACN/water (60:40) was added into each sample. […] The supernatant was collected and injected into a LC-MS/MS system for quantification. […] Quantification was performed by fitting peak area ratios to a weighted (1/x^2) linear calibration curve.
as §4

T1 sequence (P14416 1-414 isoform P14416-2): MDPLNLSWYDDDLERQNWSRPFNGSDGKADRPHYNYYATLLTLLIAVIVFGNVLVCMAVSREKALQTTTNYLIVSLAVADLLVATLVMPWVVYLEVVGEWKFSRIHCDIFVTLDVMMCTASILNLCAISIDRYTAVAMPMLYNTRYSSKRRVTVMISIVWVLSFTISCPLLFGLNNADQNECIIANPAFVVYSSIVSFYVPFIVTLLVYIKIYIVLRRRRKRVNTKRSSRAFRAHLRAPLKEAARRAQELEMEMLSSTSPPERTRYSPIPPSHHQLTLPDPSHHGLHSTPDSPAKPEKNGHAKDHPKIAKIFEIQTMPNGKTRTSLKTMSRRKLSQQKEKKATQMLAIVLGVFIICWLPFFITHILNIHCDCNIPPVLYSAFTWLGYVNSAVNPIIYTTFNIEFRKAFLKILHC
T3 sequence (Q01827 whole entry): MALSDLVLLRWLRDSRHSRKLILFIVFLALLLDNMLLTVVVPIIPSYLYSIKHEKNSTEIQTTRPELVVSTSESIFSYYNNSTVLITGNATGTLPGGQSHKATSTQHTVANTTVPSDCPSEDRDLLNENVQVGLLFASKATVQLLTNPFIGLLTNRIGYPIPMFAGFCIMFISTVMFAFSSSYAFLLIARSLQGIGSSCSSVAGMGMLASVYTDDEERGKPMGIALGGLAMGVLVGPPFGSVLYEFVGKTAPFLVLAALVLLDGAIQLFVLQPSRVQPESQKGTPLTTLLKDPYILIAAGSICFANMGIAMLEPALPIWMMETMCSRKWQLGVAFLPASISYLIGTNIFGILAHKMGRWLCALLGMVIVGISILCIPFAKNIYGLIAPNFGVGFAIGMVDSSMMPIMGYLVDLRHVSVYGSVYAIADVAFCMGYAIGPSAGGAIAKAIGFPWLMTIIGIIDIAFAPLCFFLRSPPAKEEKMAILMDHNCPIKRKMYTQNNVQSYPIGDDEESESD

Structure (SMILES): COc1cc2c(cc1OC)[C@@H]1C[C@@H](O)[C@@H](CC(C)C)CN1CC2 [2R, 3S, 11bS-HTBZ]
Ki [3]: 57 nM
binding/inhibition at D2(S) (in words) [3]: high affinity binding
Ki [4]: 67 nM

Structure (SMILES): COc1cc2c(cc1OC)[C@H]1C[C@H](O)[C@H](CC(C)C)CN1CC2 [2S, 3R, 11bR-HTBZ, (2S,3R,11bR)-3-isobutyl-9,10-dimethoxy-1,3,4,6,7,11b-hexahydro-2H-pyrido[2,1-a]isoquinolin-2-ol]
binding/inhibition at D2(S) (in words) [3]: some minor inhibition
inhibition at 30 µM ([3]; read-out: D2S (h) % inhibition at 30 uM): 17%
inhibition at dopamine D4.4 receptor (in words) [4]: some minor inhibition
inhibition at 10 µM [4]: 30%

Structure (SMILES): COc1cc2c(cc1OC)[C@@H]1C[C@H](O)[C@@H](CC(C)C)CN1CC2 [2S, 3S, 11bS-HTBZ]
Ki [3]: 192 nM
binding/inhibition at D2(S) (in words) [3]: high affinity binding
inhibition at 1 µM [4]: 9%

Structure (SMILES): CCOC(=O)O[C@@H]1C[C@@H]2c3cc(OC)c(OC)cc3CCN2C[C@H]1CC(C)C [Compound 3-1, Carbonic acid ethyl ester (2R,3R,11bR)-3-isobutyl-9,10-dimethoxy-1,3,4,6,7,11b-hexahydro-2H-pyrido[2,1-a]isoquinolin-2-yl ester]
Ki [5]: 12.6 nM
inhibition at 10 µM [3]: 15%
inhibition at 10 µM [4]: 15%
selectivity for VMAT2 (in words) [6]: demonstrated selectivity for VMAT2
conversion in human hepatocytes to HTBZ (tetrabenazine) or to 1d.1 (compounds 2-1, 3-1) [1]: rapid
parent compound in rat plasma after oral administration ([10]; oral 10 mg/kg, limit of quantification 1 ng/mL): No 3-1 was detected
rat plasma concentration time profile of 1d.1 from 3-1 compared with 1d.1 administered orally ([10]; oral, FIG. 3a): indistinguishable

Further lines, with some results ahead:

conversion in human hepatocytes to HTBZ (tetrabenazine) or to 1d.1 (compounds 2-1, 3-1) [1]: rapid
Structure (SMILES): COc1cc2c(cc1OC)C1CC(=O)C(CC(C)C)CN1CC2 (racemic) [Tetrabenazine, 3-Isobutyl-9,10-dimethoxy-1,3,4,6,7,11b-hexahydro-2H-pyrido[2,1-a]isoquinolin-2-one, reference compound]
bioavailability [2]: fairly low and variable

inhibition at 10 µM [3]: -6%
inhibition at 1 µM [4]: 0%
Structure (SMILES): COc1cc2c(cc1OC)[C@H]1C[C@@H](O)[C@H](CC(C)C)CN1CC2 [2R, 3R, 11bR-HTBZ, (2R,3R,11bR)-3-isobutyl-9,10-dimethoxy-1,3,4,6,7,11b-hexahydro-2H-pyrido[2,1-a]isoquinolin-2-ol]

Ki [5]: 200 nM
inhibition at 10 µM [3]: 2%
inhibition at 10 µM [4]: 13%
selectivity for VMAT2 (in words) [6]: demonstrated selectivity for VMAT2
conversion in human hepatocytes to HTBZ (tetrabenazine) or to 1d.1 (compounds 2-1, 3-1) [1]: comparatively slow
conversion to 1d.1 in rat liver microsomes, compared with compound 3-1 [7]: slower
conversion to 1d.1 in dog liver microsomes, compared with compound 3-1 [8]: slower
conversion to 1d.1 in human liver microsomes, compared with compound 3-1 [9]: slower
plasma half-life of 1d.1 upon oral administration of compound 2-1 relative to compound 3-1 ([10]; oral 10 mg/kg, FIGS. 3a-3b): 2-3 times
plasma half-life of 1d.1 upon oral administration of compound 2-1 relative to compound 3-1 [11]: 2-3 times
Structure (SMILES): COc1cc2c(cc1OC)[C@H]1C[C@@H](OC(=O)[C@@H](N)C(C)C)[C@H](CC(C)C)CN1CC2 [Compound 2-1, (S)-2-Amino-3-methyl-butyric acid (2R,3R,11bR)-3-isobutyl-9,10-dimethoxy-1,3,4,6,7,11b-hexahydro-2H-pyrido[2,1-a]isoquinolin-2-yl ester]
